Reference: patent US8901314B2, “Substituted pyrazoles as N-type calcium channel blockers” (Janssen Pharmaceutica NV, priority 2012, dated 2014)

How the values were obtained:
[1] = molecular target: α1B (Cav2.2), β3 and α2δ subunits of the N-type calcium channel (stable HEK cell line) (Rattus norvegicus, UniProt Q02294); experiment: Calcium-dye indicator assay (FDSS, KCl depolarization); format: cell-based; conditions: calcium mobilization response to 50 mM KCl; six-point concentration-response
In short: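 HEK cells stably co-expressing α1B, β3 and α2δ subunits, loaded with calcium dye, exposed to compound for 5 min before 50 mM KCl depolarization, 3 min further read on FDSS. Maximal fluorescence normalized to KCl maximum and buffer minimum; IC50 by sigmoidal nonlinear regression.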

[2] = system: Cav2.2 (N-type calcium channel; α1B, α2δ and β3 subunits stably expressed in HEK293 cells); experiment: Automated electrophysiology assay (QPatch-HT patch clamp); format: cell-based; conditions: 0.1 μM; for QPatch % Inhibition, High Freq: high frequency stimulation (15th pulse of 5 Hz train); for QPatch % Inhibition, Low Freq: low frequency stimulation (1st pulse of train)
In short: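 Whole-cell automated patch clamp of HEK293 cells stably expressing α1B, α2δ-1 and β3, with 10 mM Ba²⁺/TEA external solution and CsCl internal solution. From −80 mV, trains of 15 pulses to +20 mV at 5 Hz every 30 s. Pulse 1 and pulse 15 currents normalized to the no-compound control period, with CdCl2 used to zero the current.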

Structure (SMILES)	IC50 [1]	QPatch % Inhibition, High Freq [2]	QPatch % Inhibition, Low Freq [2]
COc1ccccc1-n1nc(C2CC(C)(C)OC(C)(C)C2)cc1-c1cc(C)cs1 [Compound 18, 1-(2-Methoxyphenyl)-5-(4-methylthiophen-2-yl)-3-(2,2,6,6-tetramethyltetrahydro-2H-pyran-4-yl)-1H-pyrazole]	5.3 nM	16%	−23%
CCOc1ccc(-c2cc(C3CC(C)(C)OC(C)(C)C3)nn2-c2ccccc2OC)cn1 [Compound 19, 2-Ethoxy-5-[1-(2-methoxyphenyl)-3-(2,2,6,6-tetramethyltetrahydro-2H-pyran-4-yl)-1H-pyrazol-5-yl]-pyridine]	5.4 nM	21%	10%
COc1cccc(-c2cc(C3CC(C)(C)OC(C)(C)C3)nn2-c2ccccc2OC)c1 [Compound 20, 1-(2-Methoxyphenyl)-5-(3-methoxyphenyl)-3-(2,2,6,6-tetramethyltetrahydro-2H-pyran-4-yl)-1H-pyrazole]	5.5 nM	45%	38%
COc1ccccc1-n1nc(C2CC(C)(C)OC(C)(C)C2)cc1-c1ccccc1N [Compound 22, 2-[1-(2-Methoxyphenyl)-3-(2,2,6,6-tetramethyltetrahydro-2H-pyran-4-yl)-1H-pyrazol-5-yl]-aniline]	6 nM	0%	0%
COc1ccccc1-n1nc(C2CC(C)(C)OC(C)(C)C2)cc1-c1ccc(C)nc1 [Compound 23, 5-[1-(2-Methoxyphenyl)-3-(2,2,6,6-tetramethyltetrahydro-2H-pyran-4-yl)-1H-pyrazol-5-yl]-2-methylpyridine]	6.2 nM	−8%	−19%
COc1ccccc1-n1nc(C2CC(C)(C)OC(C)(C)C2)cc1-c1cccs1 [Compound 26, 1-(2-Methoxyphenyl)-3-(2,2,6,6-tetramethyltetrahydro-2H-pyran-4-yl)-5-thiophen-2-yl-1H-pyrazole]	12 nM	42%	24%
COc1ccccc1-n1nc(C2CC(C)(C)OC(C)(C)C2)cc1-c1ccc(C)o1 [Compound 28, 1-(2-Methoxyphenyl)-5-(5-methylfuran-2-yl)-3-(2,2,6,6-tetramethyltetrahydro-2H-pyran-4-yl)-1H-pyrazole]	17 nM	−5%	−18%
COc1ccccc1-n1nc(C2CC(C)(C)OC(C)(C)C2)cc1-c1ccc(N(C)C)nc1 [Compound 31, 5-[1-(2-Methoxyphenyl)-3-(2,2,6,6-tetramethyltetrahydro-2H-pyran-4-yl)-1H-pyrazol-5-yl]-N,N-dimethylpyridin-2-amine]	3.5 nM	1%	4%
COc1ccccc1-n1nc(C2CC(C)(C)OC(C)(C)C2)cc1-c1ccc(C(C)O)cc1 (stereo not drawn) [Compound 44, 1-{4-[1-(2-Methoxyphenyl)-3-(2,2,6,6-tetramethyltetrahydro-2H-pyran-4-yl)-1H-pyrazol-5-yl]-phenyl}-ethanol]	19 nM	6%	20%
CN(C)c1ccccc1-n1nc(C2CC(C)(C)OC(C)(C)C2)cc1-c1ccc(Cl)cc1 [Compound 49, 2-[5-(4-Chlorophenyl)-3-(2,2,6,6-tetramethyltetrahydro-2H-pyran-4-yl)-1H-pyrazol-1-yl]-N,N-dimethylaniline]	5.5 nM	47%	33%
CNc1ccccc1-n1nc(C2CC(C)(C)OC(C)(C)C2)cc1-c1ccc(Cl)cc1 [Compound 60, 2-[5-(4-Chlorophenyl)-3-(2,2,6,6-tetramethyltetrahydro-2H-pyran-4-yl)-1H-pyrazol-1-yl]-N-methylaniline]	7 nM	48%	31%
